Laboratory results from ChEMBL document CHEMBL1150887, “Isolation, identification, and antioxidant activity of three stilbene glucosides newly extracted from vitis vinifera cell cultures” (J Nat Prod, 1998).
Values belong to the compound of their own block, whether it stands above or below them.

Key:
[1] = test system: Radical scavenging activity; assay: Antioxidant activity assessed as DPPH radical scavenging activity; type: functional
[2] = Antioxidant activity against cupric ion-induced lipid peroxidation in human LDL by TBA assay; type: functional

SMILES: OC[C@H]1O[C@@H](Oc2ccc(/C=C/c3cc(O)cc(O)c3)cc2O)[C@H](O)[C@@H](O)[C@@H]1O [E-RESVERATROLOSIDE]
IC50 [1]: 1000 µM
IC50 [2]: 100 µM

SMILES: Oc1cc(O)cc(/C=C/c2ccc(O)c(O)c2)c1 [PICEATANNOL]
IC50 [1]: 28 µM
IC50 [2]: 1.8 µM

SMILES: OC[C@H]1O[C@@H](Oc2cc(O)cc(/C=C/c3ccc(O)cc3)c2)[C@H](O)[C@@H](O)[C@@H]1O [PICEID]
IC50 [1]: 198 µM
IC50 [2]: 19.1 µM

SMILES: OC[C@H]1O[C@@H](Oc2ccc(/C=C\c3cc(O)cc(O)c3)cc2O)[C@H](O)[C@@H](O)[C@@H]1O [Z-RESVERATROLOSIDE]
IC50 [1]: > 1000 µM
IC50 [2]: 150 µM

The remaining compounds from weak to strong by IC50 [1], led by results:

IC50 [1]: 142 µM
IC50 [2]: 16.8 µM
SMILES: OC[C@H]1O[C@@H](Oc2cc(O)cc(/C=C\c3ccc(O)cc3)c2)[C@H](O)[C@@H](O)[C@@H]1O [Z-PICEID]

IC50 [1]: 95 µM
IC50 [2]: 18 µM
SMILES: Oc1ccc(/C=C\c2cc(O)cc(O)c2)cc1 [CIS-RESVERATROL]

IC50 [1]: 72 µM
IC50 [2]: 2.4 µM
SMILES: Oc1ccc(/C=C/c2cc(O)cc(O)c2)cc1 [RESVERATROL]

IC50 [1]: 30.2 µM
IC50 [2]: 3 µM
SMILES: OC[C@H]1O[C@@H](Oc2cc(O)cc(/C=C/c3ccc(O)c(O)c3)c2)[C@H](O)[C@@H](O)[C@@H]1O

IC50 [1]: 29 µM
IC50 [2]: 2.5 µM
SMILES: OC[C@H]1O[C@@H](Oc2cc(O)cc(/C=C\c3ccc(O)c(O)c3)c2)[C@H](O)[C@@H](O)[C@@H]1O [Z-ASTRINGIN]

IC50 [1]: 10.1 µM
IC50 [2]: 4.7 µM
SMILES: Cc1c(C)c2c(c(C)c1O)CCC(C)(C(=O)O)O2 (stereo not given) [TROLOX]
